Earlier results as cited in article PMC7772889, “Integrating biokinetics and in vitro studies to evaluate developmental neurotoxicity induced by chlorpyrifos in human iPSC-derived neural stem cells undergoing differentiation towards neuronal and glial cells” (Reproductive Toxicology (Elmsford, N.y.), 2020).

Key:
[1] = test system: hiPSC-derived NSCs undergoing differentiation; parameters: method as in PMID 32093744; conditions: 14-day treatment, resazurin, cited from earlier work
[2] = cited from earlier work

CCOP(=S)(OCC)Oc1nc(Cl)c(Cl)cc1Cl [CPF, Chlorpyrifos]
IC5 (nominal concentration causing 5 % decrease of viability) [1]: 21 µM
IC20 ([1]; nominal concentration, read-out: IC20 (viability)): 37.1 µM
exposure in new-borns, concentration in blood [2]: up to 4.9 μM
exposure in new-borns, concentration in meconium [2]: 23.6 µM
